“And” between values parts separate entries of the source, which are not always exact repeats. Identical values can stand only once. “Also recorded” adds a separate entry of the source. Like-named read-outs stand apart in the source and are kept apart here.
Key:
SH-SY5Y cells = experiment: Cytotoxicity in SH-SY5Y cells; type: cell-based, human; settings: 1000 μM
Description: (§1) Human neuroblastoma SH-SY5Y cell line (Sigma-Aldrich, Saint Louis, Mo.) was cultured in DMEM/F12 (v/v 1:1) media supplemented with 2 mM glutamine, 10% heat-inactivated fetal bovine serum (FBS) and 1% antibiotics including penicillin and streptomycin. After reaching 70-80% confluence, cells were then subcultured on poly-L-lysine plates with 10 μM retinoic acid in a reduced serum media (1% FBS) to promote neuronal maturation and differentiation as described (Agholme, et al. (2010) J. Alzheimer's Dis. 20: 1069-1082). Cell cultures were incubated at 37° C. in a fully humidified atmosphere containing 5% CO2.
(§2) SH-SY5Y cells were seeded at a density of 3×10^5 cells/mL in a 96-well plate in DMEM/F12 media containing 10 μM retinoic acid and 1% FBS to suppress cell proliferation. Cells were incubated under regular culture conditions for attachment. After 24 hours of plating, the cells were pretreated with different concentrations of test samples or the 0.2% DMSO as a vehicle control for 1 hour and then co-incubated with 10 μM Aβ42 for 72 hours. After the experimental treatment, the cells were subject to a […]® 96 AQueous One Solution Cell Proliferation […] Assay according to the manufacturer's instruction. […] Each data point was collected in triplicate of two independent experiments.

GSK-3β [1] = biological target: T1, GSK-3β (Homo sapiens, UniProt P49841); experiment: Kinase selectivity profile, GSK-3β; type: biochemical
Description: (§3) Kinase inhibition was assessed with the ADP-Glo Kinase Assay. For screening, 5 ng/μL of kinase was assayed in a reaction containing 50 ng/μL substrate, 40 mM Tris, pH 7.5, 20 mM MgCl2, 0.1 mg/mL bovine serum albumin, 50 μM dithiothreitol (DTT), 25 μM ATP, varying concentrations of test samples or 5% DMSO as vehicle. The reaction mixture was incubated for 1 hour at room temperature followed by the addition of the ADP-Glo′ reagents according to the manufacturer's protocol. The kinase inhibitor staurosporine was used at 1 μM as a reference control. Each data point was collected in quadruplicate of two independent experiments.
(§4) To assess kinase selectivity, compound 30 was screened against a panel of 41 human protein kinases of relevance to Alzheimer's disease and other CNS disorders (Martin, et al. (2013) Aging Res. Rev. 12:289-309). […] The exceptional selectivity of compound 30 to GSK-3β can effectively minimize risk of off-target effects.
Target sequence in this assay (P49841 whole entry): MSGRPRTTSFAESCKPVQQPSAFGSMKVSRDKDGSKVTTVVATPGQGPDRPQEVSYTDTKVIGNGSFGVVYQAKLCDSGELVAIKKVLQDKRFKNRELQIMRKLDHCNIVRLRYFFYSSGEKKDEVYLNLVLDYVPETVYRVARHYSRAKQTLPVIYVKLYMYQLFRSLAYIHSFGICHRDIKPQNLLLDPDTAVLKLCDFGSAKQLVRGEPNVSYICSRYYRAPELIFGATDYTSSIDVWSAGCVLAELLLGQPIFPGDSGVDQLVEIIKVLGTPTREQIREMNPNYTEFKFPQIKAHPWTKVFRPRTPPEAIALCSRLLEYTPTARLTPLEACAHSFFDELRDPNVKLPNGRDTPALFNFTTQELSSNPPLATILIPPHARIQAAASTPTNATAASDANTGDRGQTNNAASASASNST

GSK-3α = GSK-3α (Homo sapiens, UniProt P49840); experiment: Kinase selectivity profile, GSK-3α; type: biochemical
Description: as §3, §4

[2] = test system: GSK-3β-mediated tau phosphorylation (pS396) in SH-SY5Y lysate; experiment: Whole-cell lysate GSK-3β assay with human Tau pS396 ELISA; type: biochemical
Description: Whole-Cell Lysate GSK-3β Assay.
The assay procedure was followed as described (Liang, et al. (2016) ACS Chem. Neurosci. 7:912-923). SH-SY5Y cells were washed with phosphate-buffered saline (PBS) and lysed with cell extraction buffer containing 10 mM Tris, pH 7.4, 100 mM NaCl, 1 mM EDTA, 1 mM EGTA, 1 mM NaF, 20 mM Na4P2O7, 2 mM Na3VO4, 1% Triton X-100, 10% glycerol, 0.1% sodium dodecyl sulfate (SDS), 0.5% sodium deoxycholate, 1 mM phenylmethanesulfonyl fluoride (PMSF) and a protease inhibitor cocktail. Lysate was diluted with kinase buffer (40 mM Tris, pH 7.5, 20 mM MgCl2, 50 μM DTT, 400 μM ATP) to afford a concentration of 5 μg/μL of total protein, and split into aliquots. Recombinant human GSK-3β was fortified into lysate aliquots to a final concentration of 0.25% (wt/wt) of total protein. A lysate aliquot fortified with heat-inactivated GSK-3β was used as a negative control. The fortified lysate aliquots were incubated with test sample or 5% DMSO vehicle at 37° C. for 2 hours followed by ELISA analysis.
The quantitative determination of phosphorylated human tau at GSK-3β specific pS396 site was conducted by taking 50 μL diluted cell lysate and using a specific antibody against human tau [pS396] in a sandwich ELISA according to the manufacturer's protocol. Tau phosphorylation was quantified by measuring the absorbance at 450 nm in a microtiter plate reader. The analysis was collected in quadruplicate of two independent experiments.

GSK-3β [3] = biological target: T1, GSK-3β; experiment: GSK-3β kinetics (Lineweaver-Burk), ATP or substrate GS2 competition; type: biochemical; settings: 30 at 0 to 5 μM
Description: To study GSK-3β kinetics, a reaction solution contained 5 ng/μL kinase, 40 mM Tris, pH 7.5, 20 mM MgCl2, 0.1 mg/mL BSA, 50 μM DTT, and varying concentrations of ATP or substrate GS2 (residues 636-662 of human muscle glycogen synthase) versus test samples. The mixture was incubated for 5, 15, 30, and 60 minutes at room temperature followed by the addition of the ADP-Glo′ reagents according to the manufacturer's protocol. The Lineweaver-Burk representation is derived from the double reciprocal plotting of the enzyme kinetic data.
Under a constant concentration of the substrate GS2 (17 μM), ATP concentrations varied from 2 to 50 μM and 30 concentrations varied from 0 to 5 μM. […] In the second set of experiments under a constant concentration of ATP (10 μM), substrate GS2 concentrations varied from 8 to 66 μM and 30 concentrations varied from 0 to 5 μM. […] The enzyme inhibitory behaviors of 30 are similar to that of the parent compound 1 (Liang, et al. (2016) ACS Chem. Neurosci. 7:912-923) and therefore confirm that the new analogues are indeed substrate-competitive inhibitors of GSK-3β.
Target sequence in this assay (P49841 whole entry): as above

[4] = PAMPA passive membrane permeability
Description: Samples were run in quadruplicate.
Oral administration is noninvasive and is preferred for chronical diseases such as Alzheimer's disease and other CNS disorders. […] In the PAMPA model, the amount of target compounds diffused from a donor compartment to an acceptor compartment through a tri-layer phospholipid pre-coated membrane are measured to assess oral-absorption potential of drug candidates. In the present study, 1, 4, 9, 17, 21 and 30 were evaluated with the PAMPA assay.

[5] = test system: panel of 41 human protein kinases; experiment: Kinase selectivity profile, other kinases of the panel; type: biochemical; settings: 5 μM
Description: as §3, §4

[6] = test system: SH-SY5Y cells treated with Aβ42 oligomers; experiment: Anti-Aβ42 neurotoxicity assay; type: cell-based, human
Description: as §1
The toxic oligomers of Aβ42 were prepared as described (Liang, et al. (2016) ACS Chem. Neurosci. 7:912-923). Briefly, lyophilized Aβ42 peptide was dissolved in hexafluoroisopropanol, dried under vacuum, and stored at −20° C. Immediately prior to use, the peptide residue was reconstituted in DMEM/F12 media to make a stock solution at 0.1 mM and incubated at 4° C. for 24 hours to form diffusible oligomers. Aβ42 oligomers at a final concentration of 10 μM were assayed for cell viability.
as §2

GSK-3β [7] = biological target: T1, GSK-3β; experiment: Kinase luminescent assay (ADP-Glo), GSK-3β inhibition; type: biochemical
Description: Kinase Luminescent Assay.
Kinase inhibition was assessed with the ADP-Glo Kinase Assay. […] The reaction mixture was incubated for 1 hour at room temperature followed by the addition of the ADP-Glo′ reagents according to the manufacturer's protocol. The kinase inhibitor staurosporine was used at 1 μM as a reference control. Each data point was collected in quadruplicate of two independent experiments.
Target sequence in this assay (P49841 whole entry): as above

GSK-3β [8] = biological target: T1, GSK-3β; settings: background; cited from earlier work
Target sequence in this assay (P49841 whole entry, species assumed): as the sequence (P49841 whole entry) above

Chain of GSK-3α (P49840 whole entry): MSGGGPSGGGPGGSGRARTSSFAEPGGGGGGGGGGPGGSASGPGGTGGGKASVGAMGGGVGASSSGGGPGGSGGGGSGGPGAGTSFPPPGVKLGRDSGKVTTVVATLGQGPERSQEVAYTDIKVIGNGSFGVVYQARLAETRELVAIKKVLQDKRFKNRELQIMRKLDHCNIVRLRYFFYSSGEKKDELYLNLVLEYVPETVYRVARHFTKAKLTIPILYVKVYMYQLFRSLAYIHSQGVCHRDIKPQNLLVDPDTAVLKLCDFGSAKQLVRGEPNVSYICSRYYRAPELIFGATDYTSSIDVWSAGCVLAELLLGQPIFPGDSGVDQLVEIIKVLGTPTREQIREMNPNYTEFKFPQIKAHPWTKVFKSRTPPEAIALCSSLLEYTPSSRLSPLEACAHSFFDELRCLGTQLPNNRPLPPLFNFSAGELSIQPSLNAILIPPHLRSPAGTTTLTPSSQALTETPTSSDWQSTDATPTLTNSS

COc1ccc(-c2cc(=O)c3c(OC)c([C@@H]4O[C@H](C(=O)N[C@@H](C)C(F)(F)F)[C@@H](O)[C@H](O)[C@H]4O)c(OC)cc3o2)cc1OC [Compound 30, (2S,3S,4R,5R,6S)-6-(2-(3,4-Dimethoxyphenyl)-5,7-dimethoxy-4-oxo-4H-chromen-6-yl)-3,4,5-trihydroxy-N—((S)-1,1,1-trifluoropropan-2-yl)tetrahydro-2H-pyran-2-carboxamide]
cytotoxicity (SH-SY5Y cells): no observable cytotoxicity
specificity for GSK-3β versus GSK-3α (GSK-3β [1]; 5 μM): 12.3 fold
inhibition at 5 µM (GSK-3β [1]; read-out: GSK-3β inhibition (decrease of kinase activity)): 92.3%
inhibition at 5 µM (GSK-3α): 7.5%
inhibition of tau hyperphosphorylation compared to TDZD-8 ([2]; 10 μM, TDZD-8 at the same concentration): better inhibition against tau hyperphosphorylation
GSK-3β-mediated tau hyperphosphorylation at pS396 ([2]; 2, 10 and 50 μM, 2 hours, 37° C., lysate with 0.25% GSK-3β): effectively attenuated tau hyperphosphorylation in a dose-dependent manner; also recorded: attenuate GSK-3β-mediated tau phosphorylation
competition with substrate GS2 (GSK-3β [3]; ATP 10 μM, GS2 8 to 66 μM): competed with the substrate GS2
competition with ATP (GSK-3β [3]; GS2 17 μM, ATP 2 to 50 μM): no competition between ATP and 30
R (percent recovery) ([4]; 20 μM, pH 7.4, 5 hours): 30%
Pe ([4]; 20 μM, pH 7.4, 5 hours, room temperature, mean ±SD): 2.23 ± 0.21 ×10^−6 cm/s
Permeability classification ([4]; PAMPA): high (high (Pe > 1.5 × 10^−6 cm/s))
inhibition of 40 out of 41 kinases of the test panel [5]: only marginal or weak inhibition
protection against Aβ42 neurotoxicity ([6]; 1.25 to 20 μM, 10 μM Aβ42, 72 hours): neuroprotection in a dose-dependent manner; also recorded: alleviates Aβ42 induced neurotoxicity
improvement in effectiveness compared to parent compound ([6]; 30 at 10 μM versus 1 at 200 μM): ~20 fold
EC50 ([6]; Homo sapiens, SH-SY5Y, 1 hour pretreatment, 10 μM Aβ42, 72 hours, read-out: neuroprotective potency EC50): 8.7 µM
effective dose, morphological protection from Aβ42 intoxication ([6]; morphological observations): 10 μM
increase of neuroprotective potency relative to 1 ([6]; vs parent compound 1): 5.4 fold
LiPE (pIC50−CLogP) (GSK-3β [7]): > 4
IC50 (GSK-3β [7]; 25 μM ATP, 1 hour, room temperature, mean of quadruplicate of two experiments, read-out: IC50 against GSK-3β): < 20 µM and 0.59 µM
potency against GSK-3β relative to epimer 31 (GSK-3β [7]; vs 31): about 4 fold
increase of potency against GSK-3β relative to 1 (GSK-3β [7]; vs isoorientin 1): 310 fold

O=C([O-])[O-].[Li+].[Li+] [lithium carbonate]
IC50 (GSK-3β [8]): 2000 µM

— patent publication US11254700B2, “GSK-3β inhibitors and use thereof in methods of treatment” (UNIVERSITY OF HAWAII, priority 2017, dated 2022)
